Laboratory results: patent publication US8921546B2, “Imidazolothiazole compounds for the treatment of disease” (Ambit Biosciences Corporation, priority 2006, dated 2014)
Structures can show the parent of a compound that is named as a salt. Where two headings read alike, the source gives them in different places.

Key:
FLT3 = target: T1, FLT3 (Homo sapiens, UniProt P36888); assay: Binding constant (Kd) measurement, phage-displayed kinase competition binding assay, FLT3
T1 construct: made in house
T1 sequence (P36888 27-993): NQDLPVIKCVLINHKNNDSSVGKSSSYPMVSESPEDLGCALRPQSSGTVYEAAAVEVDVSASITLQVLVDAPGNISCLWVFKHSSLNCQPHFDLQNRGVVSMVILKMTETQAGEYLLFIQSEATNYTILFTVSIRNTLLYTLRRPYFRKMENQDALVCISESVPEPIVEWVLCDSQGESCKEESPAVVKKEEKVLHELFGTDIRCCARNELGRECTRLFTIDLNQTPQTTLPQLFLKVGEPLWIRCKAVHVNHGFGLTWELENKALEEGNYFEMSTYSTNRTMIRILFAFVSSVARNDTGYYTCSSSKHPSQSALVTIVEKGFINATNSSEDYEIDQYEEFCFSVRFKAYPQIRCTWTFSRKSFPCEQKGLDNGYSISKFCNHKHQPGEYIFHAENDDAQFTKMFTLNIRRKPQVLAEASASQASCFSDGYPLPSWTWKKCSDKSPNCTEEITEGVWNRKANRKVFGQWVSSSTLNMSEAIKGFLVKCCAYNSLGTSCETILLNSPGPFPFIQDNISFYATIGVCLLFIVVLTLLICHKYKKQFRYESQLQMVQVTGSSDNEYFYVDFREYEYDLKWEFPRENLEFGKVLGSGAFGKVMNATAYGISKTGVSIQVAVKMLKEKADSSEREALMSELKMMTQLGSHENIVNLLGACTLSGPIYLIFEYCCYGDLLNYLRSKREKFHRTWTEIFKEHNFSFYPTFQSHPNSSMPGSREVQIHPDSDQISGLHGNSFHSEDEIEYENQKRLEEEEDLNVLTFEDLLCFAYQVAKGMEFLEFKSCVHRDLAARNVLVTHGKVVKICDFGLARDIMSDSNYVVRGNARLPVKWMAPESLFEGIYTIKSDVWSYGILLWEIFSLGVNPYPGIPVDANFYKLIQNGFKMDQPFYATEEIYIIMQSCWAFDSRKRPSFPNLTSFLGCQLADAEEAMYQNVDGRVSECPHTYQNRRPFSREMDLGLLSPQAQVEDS
Protocol: (§1) Binding Constant (Kd) Measurements for Small-Molecule-Kinase Interactions
(§2) By testing across a large class of protein kinases, specificity of the kinase inhibitors provided herein is also determined. The components of the assays include various human kinases expressed as fusions to T7 bacteriophage particles and immobilized ligands that bind to the ATP site of the kinases. […] If the test compound binds the kinase, it competes with the immobilized ligand and prevents binding to the solid support. […] The results are read out by quantitating the amount of fusion protein bound to the solid support, which is accomplished by either traditional phage plaque assays or by quantitative PCR (qPCR) using the phage genome as a template.

MV4-11 cells = assay: Cellular proliferation assay (MTS), MV4-11; assay type: cell-based; details: Homo sapiens
Description: Cellular Proliferation Assay
Cancer cell viability and proliferation can be evaluated using a tetrazolium salt reduction cell-based assay. In viable cells, this colorimetric assay can measure mitochondrial reduction of a tetrazolium component (MTS) into an […] formazan product.
This cell line was used to determine the ability of the compounds provided herein to inhibit Flt3 in intact cells. The RS4-11 cell line, which expresses the wild-type (WT) receptor, is also used as a control to verify the test compound's ability to inhibit the FLT3 receptor containing the ITD mutation.
MV4-11 cells were plated at 10,000 cells per well in DMEM medium with 0.5% serum. RS4-11 cells were plated at 20,000 cells per well in RPMI with 0.5% serum. […] An aliquot from each well of the compound plate was transferred to the plated cells and then incubated @ 37° C. in 5% CO2 (for 3 days for the MV4-11 cells, 2 days for the RS4-11 cells).
MTS tetrazolium compound (Owen's reagent) was thawed in a H2O bath. 20 μl of MTS tetrazolium was added to each well of optical plate and the cells were incubated @ 37° C. in 5% CO2 for 2 hours.

KIT = target: T2, KIT (Homo sapiens, UniProt P10721); assay: Binding constant (Kd) measurement, phage-displayed kinase competition binding assay, KIT
T2 construct: made in house
T2 sequence (P10721 26-976): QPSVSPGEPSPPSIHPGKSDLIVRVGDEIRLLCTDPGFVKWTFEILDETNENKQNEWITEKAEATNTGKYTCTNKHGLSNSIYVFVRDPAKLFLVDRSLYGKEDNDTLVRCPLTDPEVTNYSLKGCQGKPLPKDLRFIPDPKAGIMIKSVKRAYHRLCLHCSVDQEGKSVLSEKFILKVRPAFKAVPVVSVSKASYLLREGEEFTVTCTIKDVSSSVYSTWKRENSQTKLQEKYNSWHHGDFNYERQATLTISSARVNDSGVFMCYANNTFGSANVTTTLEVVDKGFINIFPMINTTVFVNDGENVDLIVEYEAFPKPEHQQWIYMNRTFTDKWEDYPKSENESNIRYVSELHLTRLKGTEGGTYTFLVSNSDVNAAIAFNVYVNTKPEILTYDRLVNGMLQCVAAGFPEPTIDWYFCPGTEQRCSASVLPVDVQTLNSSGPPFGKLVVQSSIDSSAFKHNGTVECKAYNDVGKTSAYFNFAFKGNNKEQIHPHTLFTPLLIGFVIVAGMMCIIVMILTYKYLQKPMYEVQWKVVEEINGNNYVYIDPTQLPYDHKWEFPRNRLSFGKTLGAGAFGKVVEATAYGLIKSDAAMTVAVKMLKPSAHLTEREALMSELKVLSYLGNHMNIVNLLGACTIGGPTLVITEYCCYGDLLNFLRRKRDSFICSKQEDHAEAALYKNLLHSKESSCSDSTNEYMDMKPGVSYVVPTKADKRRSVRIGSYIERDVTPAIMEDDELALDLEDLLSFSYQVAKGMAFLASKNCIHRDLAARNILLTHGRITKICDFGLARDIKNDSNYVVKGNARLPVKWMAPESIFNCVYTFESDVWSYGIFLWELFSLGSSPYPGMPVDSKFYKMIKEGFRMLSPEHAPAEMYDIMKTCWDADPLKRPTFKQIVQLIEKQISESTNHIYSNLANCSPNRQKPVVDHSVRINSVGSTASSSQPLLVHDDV
Protocol: as §1, §2

CSF1R = target: T3, CSF1R (Homo sapiens, UniProt P07333); assay: Binding constant (Kd) measurement, phage-displayed kinase competition binding assay, CSF1R
T3 construct: made in house
T3 sequence (P07333 20-972): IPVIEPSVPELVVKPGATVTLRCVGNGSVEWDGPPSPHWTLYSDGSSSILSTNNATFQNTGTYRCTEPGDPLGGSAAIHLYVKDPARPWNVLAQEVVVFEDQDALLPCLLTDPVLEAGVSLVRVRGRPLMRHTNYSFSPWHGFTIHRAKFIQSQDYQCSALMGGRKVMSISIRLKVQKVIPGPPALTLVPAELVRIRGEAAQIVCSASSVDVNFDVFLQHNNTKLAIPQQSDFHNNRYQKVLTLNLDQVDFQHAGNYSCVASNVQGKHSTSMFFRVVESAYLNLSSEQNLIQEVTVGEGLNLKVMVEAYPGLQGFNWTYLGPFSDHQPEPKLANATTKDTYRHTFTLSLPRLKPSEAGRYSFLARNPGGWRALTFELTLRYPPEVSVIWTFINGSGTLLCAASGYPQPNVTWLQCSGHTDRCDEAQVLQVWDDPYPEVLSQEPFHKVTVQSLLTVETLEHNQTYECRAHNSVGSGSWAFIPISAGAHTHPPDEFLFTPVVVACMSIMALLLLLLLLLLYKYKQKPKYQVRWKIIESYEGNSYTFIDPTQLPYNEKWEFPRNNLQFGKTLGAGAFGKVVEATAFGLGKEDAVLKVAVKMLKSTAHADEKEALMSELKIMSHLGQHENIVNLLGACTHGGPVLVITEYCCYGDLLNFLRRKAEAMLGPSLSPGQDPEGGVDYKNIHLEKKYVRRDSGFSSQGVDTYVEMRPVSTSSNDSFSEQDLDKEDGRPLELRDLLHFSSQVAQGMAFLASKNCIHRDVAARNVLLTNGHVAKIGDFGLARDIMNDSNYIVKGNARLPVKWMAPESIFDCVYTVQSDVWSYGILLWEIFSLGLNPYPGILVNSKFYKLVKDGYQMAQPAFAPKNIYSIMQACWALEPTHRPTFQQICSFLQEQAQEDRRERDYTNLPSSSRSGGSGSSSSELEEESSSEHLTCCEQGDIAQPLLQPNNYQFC
Protocol: as §1, §2

[1] = MV4-11 cells, 72 hour incubation, MTS, read-out: Cellular Assay MV-proliferation IC50
[2] = read-out: Binding Assay FLT3 Kd
[3] = MV4-11, 72 h, read-out: Cellular Assay MV-proliferation IC50 (nM)

| IC50 (MV4-11 cells; [1]) [nM] | Kd (KIT) [nM] | Kd (CSF1R) [nM] | Kd (FLT3; [2]) [nM] | Compound | Kd (FLT3) [nM] | IC50 (MV4-11 cells; [3]) [nM] |
| --- | --- | --- | --- | --- | --- | --- |
| < 10 | < 10 | 10 to 100 | < 10 | CC(C)(C)c1ccc(NC(=O)Nc2ccc(-c3cn4c(n3)sc3cc(OCCN5CCOCC5)ccc34)cc2)cc1 [Compound F2, 1-(4-tert-Butyl-phenyl)-3-{4-[7-(2-morpholin-4-yl-ethoxy)-benzo[d]imidazo[2,1-b]thiazol-2-yl]-phenyl}-urea] |  |  |
| 10 to 100 | < 10 | 10 to 100 | 10 to 100 | CN(C(=O)Nc1cc(C(C)(C)C)on1)c1ccc(-c2cn3c(n2)sc2cc(CCCN4CCOCC4)ccc23)cc1 [Compound D2, 3-(5-tert-Butyl-isoxazol-3-yl)-1-methyl-1 {4-[7-(3-morpholin-4-yl-propyl)-benzo[d]imidazo[2,1-b]thiazol-2-yl]-phenyl}-urea] |  |  |
| < 10 | < 10 | 10 to 100 | < 10 | CC(C)(C)c1cc(NC(=O)Nc2ccc(-c3cn4c(n3)sc3cc(C(=O)O)ccc34)cc2)no1 [Compound C27, Sodium 2-{4-[3-(5-tert-butyl-isoxazol-3-yl)-ureido]-phenyl}-benzo[d]imidazo[2,1-b]thiazole-7-carboxylate] |  |  |
| < 10 | < 10 | < 10 | < 10 | CC(C)(C)c1cc(NC(=O)Nc2ccc(-c3cn4c(n3)sc3cc(CCC(=O)NCCN5CCOCC5)ccc34)cc2)no1 [Compound C9, 3-(2-{4-[3-(5-tert-butyl-isoxazol-3-yl)-ureido]-phenyl}-benzo[d]imidazo[2,1-b]thiazol-7-yl)-N-(2-morpholin-4-yl-ethyl)-propionamide hydrochloride] |  |  |
| < 10 | < 10 | 10 to 100 | < 10 | CC(C)(C)c1cc(NC(=O)Nc2ccc(-c3cn4c(n3)sc3cc(CCC(=O)NCCN5CCCCC5)ccc34)cc2)no1 [Compound C10, 3-(2-{4-[3-(5-tert-butyl-isoxazol-3-yl)-ureido]-phenyl}-benzo[d]imidazo[2,1-b]thiazol-7-yl)-N-(2-piperidin-1-yl-ethyl)-propionamide hydrochloride] |  |  |
| < 10 | < 10 | 10 to 100 | < 10 | CCN1CCN(C(=O)CCc2ccc3c(c2)sc2nc(-c4ccc(NC(=O)Nc5cc(C(C)(C)C)on5)cc4)cn23)CC1 [Compound C5, N-(5-tert-Butyl-isoxazol-3-yl)-N′-(4-{7-[3-(4-ethyl-piperazin-1-yl)-3-oxo-propyl]imidazo[2,1-b][1,3]benzothiazol-2-yl}phenyl)urea] |  |  |
| < 10 | 10 to 100 | 10 to 100 | < 10 | CC(C)(C)c1cc(NC(=O)Nc2ccc(-c3cn4c(n3)sc3cc(OCCCN5CCN(S(C)(=O)=O)CC5)ccc34)cc2)no1 [Compound B10, 1-(5-tert-butyl-isoxazol-3-yl)-3-(4-{7-[3-(4-methanesulfonyl-piperazin-1-yl)-propoxy]-benzo[d]imidazo[2,1-b]thiazol-2-yl}-phenyl)-urea] |  |  |
| > 100 | > 1000 | > 1000 | > 1000 | CCOC(=O)c1ccc2c(c1)sc1nc(-c3cccc(NC(=O)Nc4cc(C(C)(C)C)on4)c3)cn12 [Compound B14, 2-{3-[3-(5-tert-Butyl-isoxazol-3-yl)-ureido]-phenyl}-imidazo[2,1-b][1,3]benzothiazole-7-carboxylic acid ethyl ester] |  |  |
| < 10 | 10 to 100 | 100 to 1000 | < 10 | CC(C)(C)c1cc(NC(=O)Nc2ccc(-c3cn4c(n3)sc3cccc(OCCN5CCOCC5)c34)cc2)no1 [Compound B11, N-(5-tert-butyl-isoxazol-3-yl)-N′-{4-[5-(2-morpholin-4-yl-ethoxy)imidazo[2,1-b][1,3]benzothiazol-2-yl]phenyl}urea hydrochloride] |  |  |
| < 10 | 10 to 100 | 100 to 1000 | < 10 | CC(C)(C)c1cc(NC(=O)Nc2ccc(-c3cn4c(n3)sc3ccc(OCCN5CCOCC5)cc34)cc2)no1 [Compound B12, N-(5-tert-butyl-isoxazol-3-yl)-N′-{4-[6-(2-morpholin-4-yl-ethoxy)imidazo[2,1-b][1,3]benzothiazol-2-yl]phenyl}urea hydrochloride] |  |  |
|  | < 10 | > 1000 | < 10 | O=C(Nc1ccc(-c2cn3c(n2)sc2cc(OCCN4CCOCC4)ccc23)cc1)Nc1ccc2c(c1)OCO2 [Compound F3] |  |  |
| < 10 | < 10 | 10 to 100 |  | CC(C)(C)c1cc(NC(=O)Nc2ccc(-c3cn4c(n3)sc3cc(C(=O)NCCN5CCCCC5)ccc34)cc2)no1 [Compound C20, 2-{4-[3-(5-tert-butyl-isoxazol-3-yl)-ureido]-phenyl}-imidazo[2,1-b][1,3]benzothiazole-7-carboxylic Acid (2-Piperidin-1-yl-ethyl)-amide hydrochloride] |  |  |

| Compound | IC50 (MV4-11 cells; [1]) [nM] | Kd (KIT) [nM] | Kd (CSF1R) [nM] | Kd (FLT3; [2]) [nM] | Kd (FLT3) [nM] | IC50 (MV4-11 cells; [3]) [nM] |
| --- | --- | --- | --- | --- | --- | --- |
| CC(C)(C)c1cc(NC(=O)Nc2ccc(-c3cn4c(n3)sc3cc(CCC(=O)NCCN5CCCC5)ccc34)cc2)no1 [Compound C11, 3-(2-{4-[3-(5-tert-butyl-isoxazol-3-yl)-ureido]-phenyl}-benzo[d]imidazo[2,1-b]thiazol-7-yl)-N-(2-pyrrolidin-1-yl-ethyl)-propionamide hydrochloride] | < 10 | < 10 | < 10 |  | < 10 |  |
| CC(C)(C)c1cc(NC(=O)Nc2ccc(-c3cn4c(n3)sc3cc(CC(=O)N5CCOCC5)ccc34)cc2)no1 [Compound C18, 1-(5-tert-butyl-isoxazol-3-yl)-3-{4-[7-(2-morpholin-4-yl-2-oxo-ethyl)-imidazo[2,1-b][1,3]benzothiazol-2yl]-phenyl}-urea] | < 10 | < 10 | 10 to 100 |  | < 10 |  |
| CC(C)(C)c1cc(NC(=O)Nc2ccc(-c3cn4c(n3)sc3cc(OCCCN5CCSCC5)ccc34)cc2)no1 [Compound B8, 1-(5-tert-Butyl-isoxazol-3-yl)-3-{4-[7-(3-thiomorpholin-4-yl-propoxy)-benzo[d]imidazo[2,1-b]thiazol-2-yl]-phenyl}-urea] | 10 to 100 | 10 to 100 | 10 to 100 |  | < 10 |  |
| CC(C)(C)c1cc(NC(=O)Nc2ccc(-c3cn4c(n3)sc3cc(CN5CCCCC5)ccc34)cc2)no1 [Compound D10, 1-(5-tert-Butyl-isoxazol-3-yl)-3-[4-(7-piperidin-1-ylmethyl-imidazo[2,1-b][1,3]benzothiazol-2-yl)-phenyl]urea hydrochloride] | < 10 | < 10 | 10 to 100 |  | < 10 |  |
| CCN1CCN(Cc2ccc3c(c2)sc2nc(-c4ccc(NC(=O)Nc5cc(C(C)(C)C)on5)cc4)cn23)CC1 [Compound D9, 1-(5-tert-Butyl-isoxazol-3-yl)-3-{4-[7-(4-ethyl-piperazin-1-ylmethyl)-imidazo[2,1-b][1,3]benzothiazol-2-yl]-phenyl}-urea hydrochloride] |  | < 10 | 10 to 100 | < 10 |  | < 10 |
| CCN1CCN(C(=O)c2ccc3c(c2)sc2nc(-c4ccc(NC(=O)Nc5cc(C(C)(C)C)on5)cc4)cn23)CC1 [Compound C23, 1-(5-tert-butyl-isoxazol-3-yl)-3-{4-[7-(4-ethyl-piperazine-1-carbonyl)-imidazo[2,1-b][1,3]benzothiazol-2-yl]-phenyl}-urea hydrochloride] |  | < 10 | 10 to 100 | < 10 |  | < 10 |
